{"source": "patent US20090137613A1", "about": "“PHARMACEUTICALLY ACCEPTABLE SALTS AND POLYMORPHIC FORMS” (priority 2006, published 2009)", "key": {"[1]": {"settings": "cited from earlier work; for bioavailability: oral, valacyclovir in comparison to acyclovir"}, "[2]": {"experiment": "Thermogravimetric analysis (TGA), thermally induced weight loss / thermal stability", "type": "physicochemical", "description": "Polymorph I of valacyclovir mesylate according to the present invention is further characterised by a typical TGA thermograph, or substantially the same TGA thermograph, as shown in FIG. 3. As used herein, the term “TGA” refers to thermogravimetric analysis. […] TGA is restricted in transitions that involve either a gain or a loss of mass and it is most commonly used to study desolvation processes and compound decomposition.\nFIG. 3: Typical TGA thermograph of polymorph I of valacyclovir mesylate obtained by using thermogravimetric analysis (TGA) using TGA 7 manufactured by Perkin-Elmer. The experiments were done under flow of nitrogen (35 ml/min) and heating rate was 10° C./min."}, "[3]": {"experiment": "Dynamic vapour sorption (DVS), moisture sorption / hygroscopicity", "type": "physicochemical", "description": "DVS is a measure of the water vapour or moisture sorption of a material under varying conditions of humidity and it can be used as a measure of the hygroscopicity of a given material. The DVS data as described herein was obtained using the Dynamic Vapour Sorption (DVS) methodology developed by Surface Measurement Systems (SMS) Ltd. for the rapid quantitative analysis of the water sorption properties of solids including pharmaceutical materials. The Surface Measurement Systems DVS instrument rapidly measures uptake and loss of moisture by flowing a carrier gas at a specified relative humidity (RH) over a sample (1 mg-1.5 g) suspended from the weighing mechanism of a Cahn D-200 ultra sensitive recording microbalance. This particular microbalance is used because it is capable of measuring changes in sample mass lower than 1 part in 10 million and provides the long-term stability as required for the accurate measurement of vapour sorption phenomena, which may take from minutes to days to complete depending upon the sample size and material. Indeed, a major factor in determining the water sorption behaviour of materials is the need to establish rapid water sorption equilibrium, therefore the DVS instrument allows sorption behaviour to be accurately determined on very small sample sizes (typically 10 mg), thus minimising the equilibration time required. One of the most critical factors for any instrumentation used for investigating moisture sorption behaviour is the temperature stability of the measurement system. The main DVS instrument systems as used herein are, therefore, housed in a precisely controlled constant temperature incubator with a temperature stability of ±0.1° C. This ensures very good instrument baseline stability as well as accurate control of the relative humidity generation. The required relative humidities are generated by accurately mixing dry and saturated vapour gas flows in the correct proportions using mass flow controllers. Humidity and temperature probes are situated just below the sample and reference holders to give independent verification of system performance. The microbalance mechanism is very sensitive to sorption and desorption of moisture. A constant dry gas purge to the balance head is, therefore, provided to give the best performance in terms of baseline stability. The purge flow is manually controlled such that in the event of a power failure, condensation of moisture in the balance head cannot occur. The DVS instrument is fully automated."}, "[4]": {"settings": "cited from earlier work"}, "[5]": {"settings": "temperature range of about 30-175° C."}, "[6]": {"settings": "at about 90% relative humidity (RH)"}}, "note": "Structures can show the parent of a compound that is named as a salt. Where two headings read alike, the source gives them in different places.", "data": [{"compound": "CC(C)[C@H](N)C(=O)OCCOCn1cnc2c(=O)[nH]c(N)nc21", "note": "[valacyclovir, L-valine 2-[(2-amino-1,6-dihydro-6-oxo-9H-purin-9-yl)methoxy]ethyl ester]", "values": [{"measurement": "absorption from the gastrointestinal tract", "setting": "[1]; after oral administration", "value": "rapidly absorbed"}, {"measurement": "bioavailability", "setting": "[1]", "value": "improved bioavailability"}]}, {"compound": "valacyclovir citrate [Polymorph I of valacyclovir citrate]", "values": [{"measurement": "stable to a temperature of (thermal stability confirmed by TGA)", "setting": "[2]; solid form as prepared", "value": "about 180 °C"}, {"measurement": "TGA weight loss", "setting": "[2]; temperature range of about 30-80° C.", "value": "about 2.6%"}]}, {"compound": "valacyclovir phosphate [Polymorph III of valacyclovir phosphate]", "values": [{"measurement": "TGA weight loss", "setting": "[2]; [5]", "value": "about 2.1%"}, {"measurement": "dynamic vapour sorption (DVS)", "setting": "[3]; [6]", "value": "about 5.2%"}]}, {"compound": "valacyclovir phosphate [Polymorph II of valacyclovir phosphate]", "values": [{"measurement": "TGA weight loss", "setting": "[2]; [5]", "value": "about 6.8%"}]}, {"compound": "valacyclovir phosphate [Polymorph I of valacyclovir phosphate]", "values": [{"measurement": "stable to a temperature of (thermal stability confirmed by TGA)", "setting": "[2]; solid form as prepared", "value": "about 200 °C"}, {"measurement": "TGA weight loss", "setting": "[2]; temperature range of about 30-200° C.", "value": "no TGA weight loss"}, {"measurement": "dynamic vapour sorption (DVS)", "setting": "[3]; at about 80% RH", "value": "about 1.0%"}, {"measurement": "dynamic vapour sorption (DVS)", "setting": "[3]; [6]", "value": "about 5.1%"}]}, {"compound": "CC(C)[C@H](N)C(=O)OCCOCn1cnc2c(=O)[nH]c(N)nc21", "note": "[valacyclovir hydrochloride]", "values": [{"measurement": "solubility in water", "setting": "[4]", "value": "moderately soluble"}]}, {"compound": "valacyclovir fumarate [Polymorph II of valacyclovir fumarate]", "values": [{"measurement": "stable to a temperature of (thermal stability confirmed by TGA)", "setting": "[2]", "value": "about 150 °C"}, {"measurement": "TGA weight loss", "setting": "[2]; temperature range of about 30-140° C.", "value": "about 9.2%"}]}, {"compound": "CC(C)[C@H](N)C(=O)OCCOCn1cnc2c(=O)[nH]c(N)nc21", "note": "[Polymorph I of valacyclovir base, L-valine 2-[(2-amino-1,6-dihydro-6-oxo-9H-purin-9-yl)methoxy]ethyl ester]", "values": [{"measurement": "stable to a temperature of (thermal stability confirmed by TGA)", "setting": "[2]; solid form as prepared", "value": "about 200 °C"}, {"measurement": "TGA weight loss", "setting": "[2]; temperature range of about 200° C.", "value": "no TGA weight loss"}, {"measurement": "dynamic vapour sorption (DVS)", "setting": "[3]; [6]", "value": "about 0.4%"}]}, {"compound": "valacyclovir fumarate [Polymorph I of valacyclovir fumarate]", "values": [{"measurement": "stable to a temperature of (thermal stability confirmed by TGA)", "setting": "[2]; solid form as prepared", "value": "about 200 °C"}, {"measurement": "TGA weight loss", "setting": "[2]; temperature range of about 30-100° C.", "value": "about 0.9%"}]}, {"compound": "Nc1nc2c(ncn2COCCO)c(=O)[nH]1", "note": "[Acyclovir, 9-[(2-hydroxyethoxy)methyl]guanine]", "values": [{"measurement": "bioavailability", "setting": "[1]", "value": "low bioavailability"}]}, {"compound": "valacyclovir maleate [Polymorph I of valacyclovir maleate]", "values": [{"measurement": "stable to a temperature of (thermal stability confirmed by TGA)", "setting": "[2]; solid form as prepared", "value": "about 160 °C"}, {"measurement": "TGA weight loss", "setting": "[2]; temperature range of about 30-150° C.", "value": "about 5.3%"}]}, {"compound": "valacyclovir mesylate [Polymorph I of valacyclovir mesylate]", "values": [{"measurement": "stable to a temperature of (thermal stability confirmed by TGA)", "setting": "[2]; solid form as prepared", "value": "about 200 °C"}, {"measurement": "TGA weight loss", "setting": "[2]; temperature range of about 30-165° C.", "value": "about 2.5%"}, {"measurement": "dynamic vapour sorption (DVS)", "setting": "[3]; [6]", "value": "about 3.6%"}]}]}
